Values of other authors, collected in patent US20140113883A1, “Therapeutic micro nutrient composition for lipolysis and sclerosis” (priority 2008, published 2014).

Tested on: red blood cells

Substance: Lysolecithin
- hemolytic properties: strong hemolytic properties
